Source: patent US20260007599A1, “TICAGRELOR IV FORMULATIONS FOR USE IN THE TREATMENT OF GRAM-POSITIVE BACTEREMIA” (Hyloris Developments SA, priority 2023, published 2026)

What was measured:
[1] = Solubilization of ticagrelor in unbuffered cyclodextrin stock solutions in milli Q water, appearance on shaking platform; assay type: physicochemical;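 as to Appearance in cyclodextrin: plus means clear and fully dissolved while plus-minus means clear solution with precipitation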
Procedure: In a first example two different types of cyclodextrin were used and compared for the solubilization of ticagrelor. An unbuffered stock solution of HPBCD or SBECD was made in water at the target concentrations of 20 w/w %, 25 w/w %, 30 w/w %, 35 w/w % and 40 w/w %. Ticagrelor was added slowly under vortex. Ticagrelor was used at concentrations of 5, 10 or 14 mg/ml in milli Q water. The ticagrelor-cyclodextrin solutions were left on a shaking platform. No sonification or heat was applied.

[2] = Maximum solubility of ticagrelor in HPβCD solution without heat; assay type: physicochemical; details: without the use of heat
Source text: In a further example, the maximum solubility of ticagrelor in an HPβCD solution, without the use of heat, was investigated.

[3] = Dilution of a concentrated ticagrelor vial (8 ml, 65 mg ticagrelor, about 3 g HPβCD); assay type: physicochemical
Enterococcus faecalis = details: ex-vivo; cited from earlier work
[4] = phosphate buffered solution at pH 7.4; after 1 month under normal laboratory conditions of light and temperature; cited from earlier work

**Q.** Which Appearance in cyclodextrin ([1]; HPβCD 35% w/w, ticagrelor 10 mg/ml, after 3 h of shaking) does the source give for `CCCSc1nc(N[C@@H]2C[C@H]2c2ccc(F)c(F)c2)c2nnn([C@@H]3C[C@H](OCCO)[C@@H](O)[C@H]3O)c2n1` [ticagrelor, (1S,2S,3R,5S)-3-{7-[(1R,2S)-2-(3,4-difluorophenyl)cyclopropylamino]5-(propylthio)-3H-(1,2,3)triazolo (4,5-D)pyrimidin-3-yl}-5-(2 hydroxyethoxy) cyclopentane-1,2-diol] here?
**A.** The Appearance in cyclodextrin was “+/−”.

**Q.** What about the Appearance in cyclodextrin ([1]; HPβCD 35% w/w, ticagrelor 10 mg/ml, after overnight shaking) of the same compound?
**A.** Its Appearance in cyclodextrin is “+ (clear, appeared completely dissolved)”.

**Q.** What about the Appearance in cyclodextrin ([1]; HPβCD 35% w/w, ticagrelor 14 mg/ml, after 5 min of shaking) of the same compound?
**A.** Its Appearance in cyclodextrin is “− (translucent solution with precipitation)”.

**Q.** And the Appearance in cyclodextrin ([1]; HPβCD 35% w/w, ticagrelor 14 mg/ml, after 30 min of shaking)?
**A.** Its Appearance in cyclodextrin is “+/−”.

**Q.** What about the Appearance in cyclodextrin ([1]; HPβCD 35% w/w, ticagrelor 14 mg/ml, after 60 min of shaking) of the same compound?
**A.** Its Appearance in cyclodextrin is “+/−”.

**Q.** And the Appearance in cyclodextrin ([1]; HPβCD 35% w/w, ticagrelor 14 mg/ml, after 3 h of shaking)?
**A.** Its Appearance in cyclodextrin is “+/−”.

**Q.** What about the Appearance in cyclodextrin ([1]; HPβCD 35% w/w, ticagrelor 14 mg/ml, after overnight shaking) of the same compound?
**A.** The Appearance in cyclodextrin was “+/−”.

**Q.** What about the Appearance in cyclodextrin ([1]; HPβCD 40% w/w, ticagrelor 5 mg/ml, after 5 min of shaking) of the same compound?
**A.** The Appearance in cyclodextrin was “+ (clear, appeared completely dissolved)”.

**Q.** What about the Appearance in cyclodextrin ([1]; HPβCD 40% w/w, ticagrelor 5 mg/ml, after 30 min of shaking) of the same compound?
**A.** Its Appearance in cyclodextrin is “+ (clear, appeared completely dissolved)”.

**Q.** What about the Appearance in cyclodextrin ([1]; HPβCD 40% w/w, ticagrelor 5 mg/ml, after 60 min of shaking) of the same compound?
**A.** The Appearance in cyclodextrin was “+ (clear, appeared completely dissolved)”.

**Q.** And the Appearance in cyclodextrin ([1]; HPβCD 40% w/w, ticagrelor 5 mg/ml, after 3 h of shaking)?
**A.** The Appearance in cyclodextrin was “+ (clear, appeared completely dissolved)”.

**Q.** And the Appearance in cyclodextrin ([1]; HPβCD 40% w/w, ticagrelor 5 mg/ml, after overnight shaking)?
**A.** The Appearance in cyclodextrin was “+ (clear, appeared completely dissolved)”.

**Q.** What about the Appearance in cyclodextrin ([1]; HPβCD 40% w/w, ticagrelor 10 mg/ml, after 5 min of shaking) of the same compound?
**A.** The Appearance in cyclodextrin was “− (translucent solution with precipitation)”.

**Q.** And the Appearance in cyclodextrin ([1]; HPβCD 40% w/w, ticagrelor 10 mg/ml, after 30 min of shaking)?
**A.** The Appearance in cyclodextrin was “+/−”.

**Q.** And the Appearance in cyclodextrin ([1]; HPβCD 40% w/w, ticagrelor 10 mg/ml, after 60 min of shaking)?
**A.** The Appearance in cyclodextrin was “+/−”.

**Q.** And the Appearance in cyclodextrin ([1]; HPβCD 40% w/w, ticagrelor 10 mg/ml, after 3 h of shaking)?
**A.** Its Appearance in cyclodextrin is “+/−”.

**Q.** What about the Appearance in cyclodextrin ([1]; HPβCD 40% w/w, ticagrelor 10 mg/ml, after overnight shaking) of the same compound?
**A.** Its Appearance in cyclodextrin is “+ (clear, appeared completely dissolved)”.

**Q.** And the Appearance in cyclodextrin ([1]; HPβCD 40% w/w, ticagrelor 14 mg/ml, after 5 min of shaking)?
**A.** Its Appearance in cyclodextrin is “− (translucent solution with precipitation)”.

**Q.** And the Appearance in cyclodextrin ([1]; HPβCD 40% w/w, ticagrelor 14 mg/ml, after 30 min of shaking)?
**A.** Its Appearance in cyclodextrin is “+/−”.

**Q.** And the Appearance in cyclodextrin ([1]; HPβCD 40% w/w, ticagrelor 14 mg/ml, after 60 min of shaking)?
**A.** Its Appearance in cyclodextrin is “+/−”.

**Q.** What about the Appearance in cyclodextrin ([1]; HPβCD 40% w/w, ticagrelor 14 mg/ml, after 3 h of shaking) of the same compound?
**A.** Its Appearance in cyclodextrin is “+/−”.

**Q.** And the Appearance in cyclodextrin ([1]; SBECD 35% w/w, ticagrelor 5 mg/ml, after 5 min of shaking)?
**A.** The Appearance in cyclodextrin was “− (translucent solution with precipitation)”.

**Q.** What about the Appearance in cyclodextrin ([1]; SBECD 35% w/w, ticagrelor 5 mg/ml, after 30 min of shaking) of the same compound?
**A.** Its Appearance in cyclodextrin is “+/−”.

**Q.** What about the Appearance in cyclodextrin ([1]; SBECD 35% w/w, ticagrelor 5 mg/ml, after 60 min of shaking) of the same compound?
**A.** Its Appearance in cyclodextrin is “+/−”.

**Q.** What about the Appearance in cyclodextrin ([1]; SBECD 35% w/w, ticagrelor 5 mg/ml, after 3 h of shaking) of the same compound?
**A.** Its Appearance in cyclodextrin is “+/−”.

**Q.** And the Appearance in cyclodextrin ([1]; SBECD 35% w/w, ticagrelor 5 mg/ml, after overnight shaking)?
**A.** Its Appearance in cyclodextrin is “− (translucent solution with precipitation)”.

**Q.** What about the Appearance in cyclodextrin ([1]; SBECD 35% w/w, ticagrelor 10 mg/ml, after 5 min of shaking) of the same compound?
**A.** Its Appearance in cyclodextrin is “− (translucent solution with precipitation)”.

**Q.** What about the Appearance in cyclodextrin ([1]; SBECD 35% w/w, ticagrelor 10 mg/ml, after 30 min of shaking) of the same compound?
**A.** The Appearance in cyclodextrin was “− (translucent solution with precipitation)”.

**Q.** And the Appearance in cyclodextrin ([1]; SBECD 35% w/w, ticagrelor 10 mg/ml, after 60 min of shaking)?
**A.** Its Appearance in cyclodextrin is “− (translucent solution with precipitation)”.

**Q.** And the Appearance in cyclodextrin ([1]; SBECD 35% w/w, ticagrelor 10 mg/ml, after 3 h of shaking)?
**A.** The Appearance in cyclodextrin was “− (translucent solution with precipitation)”.

**Q.** What about the Appearance in cyclodextrin ([1]; SBECD 35% w/w, ticagrelor 10 mg/ml, after overnight shaking) of the same compound?
**A.** Its Appearance in cyclodextrin is “− (translucent solution with precipitation)”.

**Q.** What about the Appearance in cyclodextrin ([1]; SBECD 35% w/w, ticagrelor 14 mg/ml, after 5 min of shaking) of the same compound?
**A.** Its Appearance in cyclodextrin is “− (translucent solution with precipitation)”.

**Q.** And the Appearance in cyclodextrin ([1]; SBECD 35% w/w, ticagrelor 14 mg/ml, after 30 min of shaking)?
**A.** The Appearance in cyclodextrin was “− (translucent solution with precipitation)”.

**Q.** And the Appearance in cyclodextrin ([1]; SBECD 35% w/w, ticagrelor 14 mg/ml, after 60 min of shaking)?
**A.** Its Appearance in cyclodextrin is “− (translucent solution with precipitation)”.

**Q.** What about the Appearance in cyclodextrin ([1]; SBECD 35% w/w, ticagrelor 14 mg/ml, after 3 h of shaking) of the same compound?
**A.** The Appearance in cyclodextrin was “− (translucent solution with precipitation)”.

**Q.** And the Appearance in cyclodextrin ([1]; SBECD 35% w/w, ticagrelor 14 mg/ml, after overnight shaking)?
**A.** The Appearance in cyclodextrin was “− (translucent solution with precipitation)”.

**Q.** What about the Appearance in cyclodextrin ([1]; SBECD 40% w/w, ticagrelor 10 mg/ml, after 5 min of shaking) of the same compound?
**A.** The Appearance in cyclodextrin was “− (translucent solution with precipitation)”.

**Q.** What about the Appearance in cyclodextrin ([1]; SBECD 40% w/w, ticagrelor 10 mg/ml, after 30 min of shaking) of the same compound?
**A.** The Appearance in cyclodextrin was “− (translucent solution with precipitation)”.

**Q.** What about the Appearance in cyclodextrin ([1]; SBECD 40% w/w, ticagrelor 10 mg/ml, after 60 min of shaking) of the same compound?
**A.** The Appearance in cyclodextrin was “− (translucent solution with precipitation)”.

**Q.** What about the Appearance in cyclodextrin ([1]; SBECD 40% w/w, ticagrelor 10 mg/ml, after 3 h of shaking) of the same compound?
**A.** The Appearance in cyclodextrin was “− (translucent solution with precipitation)”.

**Q.** What about the Appearance in cyclodextrin ([1]; SBECD 40% w/w, ticagrelor 10 mg/ml, after overnight shaking) of the same compound?
**A.** The Appearance in cyclodextrin was “− (translucent solution with precipitation)”.

**Q.** What about the Appearance in cyclodextrin ([1]; SBECD 40% w/w, ticagrelor 14 mg/ml, after 5 min of shaking) of the same compound?
**A.** The Appearance in cyclodextrin was “− (translucent solution with precipitation)”.

**Q.** What about the Appearance in cyclodextrin ([1]; SBECD 40% w/w, ticagrelor 14 mg/ml, after 30 min of shaking) of the same compound?
**A.** Its Appearance in cyclodextrin is “− (translucent solution with precipitation)”.

**Q.** And the Appearance in cyclodextrin ([1]; SBECD 40% w/w, ticagrelor 14 mg/ml, after 60 min of shaking)?
**A.** The Appearance in cyclodextrin was “− (translucent solution with precipitation)”.

**Q.** What about the Appearance in cyclodextrin ([1]; SBECD 40% w/w, ticagrelor 14 mg/ml, after 3 h of shaking) of the same compound?
**A.** Its Appearance in cyclodextrin is “− (translucent solution with precipitation)”.

**Q.** And the Appearance in cyclodextrin ([1]; SBECD 40% w/w, ticagrelor 14 mg/ml, after overnight shaking)?
**A.** Its Appearance in cyclodextrin is “− (translucent solution with precipitation)”.

**Q.** What about the Appearance on standing ([1]; ticagrelor 5 mg/ml in HPBCD 40%, 35% or 30% w/w in milliQ water, at least three days at room temperature and several days at 4° C.) of the same compound?
**A.** Its Appearance on standing is “remained clear”.

**Q.** And the “Ticagrelor (maximum solubility in HPβCD solution)” value ([2]; HPβCD 30% w/w)?
**A.** Its value is 8000 µg/mL.

**Q.** What about the “Ticagrelor (maximum solubility in HPβCD solution)” value ([2]; HPβCD 33% w/w) of the same compound?
**A.** The value was 9000 µg/mL.

**Q.** What about the “clear solution on dilution” value ([3]; 0,9 w/v % NaCl solution as diluent) of the same compound?
**A.** Its value is “not possible”.

**Q.** And the appearance after dilution ([3]; diluted with 25 ml 5 w/v % dextrose, final volume 33 ml)?
**A.** Its appearance after dilution is “clear solution”.

**Q.** And the minimal bactericidal concentration (Enterococcus faecalis)?
**A.** The minimal bactericidal concentration was 40 microgram/ml.

**Q.** And the “ticagrelor concentrations in solution” value [4]?
**A.** The value was “declined”.
